In general, pIC50 refers to the negative decadic logarithm of the IC50, by convention in mol/L. Broadly, the MBC is the lowest tested concentration that kills the bacteria rather than only halting them.

The test system of one series is Escherichia coli. The series is described as follows: Antibacterial activity against Escherichia coli ATCC 25922 assessed as bacterial growth inhibition incubated for 4 hrs followed by resazurin addition and measured after 1 hr by fluorescence based analysis. It counts as functional, organism-based.
The test system of the next series is Klebsiella pneumoniae. Put plainly: Antibacterial activity against Klebsiella pneumoniae VK148 assessed as bacterial growth inhibition incubated for 4 hrs followed by resazurin addition and measured after 1 hr by fluorescence based analysis.
The next series concerns Pseudomonas aeruginosa. Put plainly: Antibacterial activity against Pseudomonas aeruginosa 1423 assessed as bacterial growth inhibition incubated for 7 hrs by absorbance based analysis. The conditions noted are these: Pseudomonas aeruginosa, 1423, 7 h.
Series [1] concerns Cell membrane. Put plainly: Induction of outer membrane permeabilization in Escherichia coli ATCC 25922 assessed as increase in NPN uptake at 10 to 40 uM by NPN-dye based fluorescence analysis. The class given is subcellular. Particulars: dose 10-40 µM.
Series [2] has as its system Acinetobacter baumannii. Put plainly: Antibacterial activity against Acinetobacter baumannii 5075 assessed as bacterial growth inhibition incubated for 5 hrs by absorbance based analysis. It counts as functional, organism-based. The conditions noted are these: Acinetobacter baumannii, 5075, 5 h.
In series [3] the test system is Cell membrane. The series is described as follows: Induction of inner membrane permeabilization in Escherichia coli ATCC 25922 assessed as increase in absorbance at 420 nm in presence of ONPG by absorbance based assay. It counts as subcellular.
Series [4] deals with Acinetobacter baumannii. Put plainly: Bactericidal activity against Acinetobacter baumannii 5075 assessed as reduction in cell viability incubated for 24 hrs. The class given is functional.
The nature of series [5]: Hemolytic activity in human RBC assessed as hemolysis at 2.5 to 40 uM incubated for 1 hr by absorbance based analysis. The class given is ADME, tissue-based. Particulars: erythrocyte, dose 2.5-40 µM.

pIC50: −log10 of the molar value. In brackets after ≈: the same amount, converted by molar mass. Activity calls are given as the source filed them. The rule behind the calls is not given here. Where a SMILES comes first, the peptide text is derived from it. Bridges are numbered along the chain shown (N, C = ends). [ ]: non-standard residue; d: D form. pGlu = O=C1CC[C@@H](C(=O)O)N1

`CC[C@H](C)[C@H](NC(=O)[C@H](CCCCN)NC(=O)CNC(=O)[C@H](CC(C)C)NC(=O)CNC(=O)[C@H](CCCCN)NC(=O)[C@@H](NC(=O)[C@H](CC(C)C)NC(=O)[C@H](Cc1cnc[nH]1)NC(=O)[C@H](CCCNC(=N)N)NC(=O)CNC(=O)[C@@H](NC(=O)[C@@H](N)CCCCN)C(C)C)C(C)C)C(=O)N[C@@H](Cc1ccccc1)C(=O)N[C@@H](CCCNC(=N)N)C(=O)N[C@@H](C)C(=O)NCC(=O)N[C@H](CCCCN)C(=O)N[C@@H](C(=O)N[C@H](C(=O)N[C@@H](Cc1ccccc1)C(=O)N[C@H]1CSSC[C@@H](C(=O)N[C@@H](CCCCN)C(=O)N[C@H](C(=O)N[C@H]2CSSC[C@@H](C(=O)N[C@@H](C)C(=O)O)NC(=O)[C@@H]3CSSC[C@H](NC(=O)[C@H](CC(C)C)NC(=O)CNC(=O)[C@H](CC(N)=O)NC2=O)C(=O)N[C@@H](CC(=O)O)C(=O)N[C@@H](Cc2ccc(O)cc2)C(=O)N3)[C@@H](C)O)NC(=O)[C@H]([C@@H](C)O)NC(=O)[C@H](CC(N)=O)NC1=O)[C@@H](C)CC)C(C)C`: the pIC50 in the series on Escherichia coli is 5.12.
As for `CC[C@H](C)[C@@H]1NC(=O)[C@@H]2CSSC[C@H](NC(=O)[C@H](CCCCN)NC(=O)[C@H](C)NC(=O)[C@H](CCSC)NC(=O)[C@@H](NC(=O)[C@@H](NC(=O)[C@@H]3CCCN3C(=O)[C@H](CC(=O)O)NC(=O)[C@H](CC(C)C)NC(=O)[C@@H](NC(=O)[C@H](CCC(=O)O)NC(=O)[C@@H]3CCC(=O)N3)[C@@H](C)O)[C@@H](C)CC)CSSC[C@@H](C(=O)N[C@H](C(=O)N[C@@H](CC(C)C)C(=O)O)C(C)C)NC(=O)CNC(=O)[C@H](C)NC1=O)C(=O)N[C@@H](C(C)C)C(=O)N[C@@H](CC(C)C)C(=O)N[C@@H](CCCCN)C(=O)N[C@H]1CSSC[C@H](NC(=O)[C@H](Cc3c[nH]c4ccccc34)NC(=O)[C@H](C)NC(=O)[C@H](CCCCN)NC(=O)[C@H](CCCCN)NC(=O)CNC1=O)C(=O)N[C@@H](CC(C)C)C(=O)N[C@@H]([C@@H](C)O)C(=O)N[C@@H](CCCCN)C(=O)N2` ([pGlu]ETLDPICMAKCVLKCGKKAWCLTKCIAGCVL-OH; disulfide 8-30, 12-26, 16-22), the pIC50 in the series with Klebsiella pneumoniae was 4.88; in the series on Pseudomonas aeruginosa, 5.16; with Escherichia coli, 4.84; with Acinetobacter baumannii [2], 5.40. The values for the Activity (with Cell membrane [1]; in series [5]) were 100% and “Non-Toxic”, respectively. Also, in the series with Cell membrane [3], the outcome was Active. Further, in the series with Acinetobacter baumannii [4], the MBC was determined as 8.6 µM (≈ 29.7 µg/mL).

Values taken from ChEMBL document CHEMBL5053502, “Too Hot to Handle: Antibacterial Peptides Identified in Ghost Pepper” (J Nat Prod, 2021).
